The record followed here is US8633206B2, “Pyrrolo[2,3-D]pyrimidine compounds” (Pfizer Inc., priority 2009, dated 2014).

What all share (assay type): biochemical
The target in one assay is JAK2 (Homo sapiens (Human), UniProt O60674). Briefly: JAK enzymatic assay (peptide mobility shift), JAK2. Conditions: recombinant JAK2 2 nM, JAKtide peptide, 150 minutes.
Another assay concerns the target JAK3 (Homo sapiens (Human), UniProt P52333). Kind of assay: JAK enzymatic assay (peptide mobility shift), JAK3. Particulars: recombinant JAK3 1 nM, JAKtide peptide, 90 minutes.
Another assay concerns the target JAK1 (Homo sapiens (Human), UniProt P23458). Kind of assay: JAK enzymatic assay (peptide mobility shift), JAK1. Particulars: recombinant JAK1 20 nM, IRS-1 peptide, 240 minutes.

JAK3, sequence (P52333 781-1124): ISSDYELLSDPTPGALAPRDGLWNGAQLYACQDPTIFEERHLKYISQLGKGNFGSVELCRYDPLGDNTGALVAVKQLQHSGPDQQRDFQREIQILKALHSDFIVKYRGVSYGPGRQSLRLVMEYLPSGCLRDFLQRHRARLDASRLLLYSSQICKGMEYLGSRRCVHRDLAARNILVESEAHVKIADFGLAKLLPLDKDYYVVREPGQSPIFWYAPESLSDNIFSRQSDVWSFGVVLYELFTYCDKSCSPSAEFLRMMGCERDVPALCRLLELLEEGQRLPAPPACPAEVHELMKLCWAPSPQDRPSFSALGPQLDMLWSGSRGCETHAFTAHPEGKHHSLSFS
JAK1, sequence (P23458 whole entry): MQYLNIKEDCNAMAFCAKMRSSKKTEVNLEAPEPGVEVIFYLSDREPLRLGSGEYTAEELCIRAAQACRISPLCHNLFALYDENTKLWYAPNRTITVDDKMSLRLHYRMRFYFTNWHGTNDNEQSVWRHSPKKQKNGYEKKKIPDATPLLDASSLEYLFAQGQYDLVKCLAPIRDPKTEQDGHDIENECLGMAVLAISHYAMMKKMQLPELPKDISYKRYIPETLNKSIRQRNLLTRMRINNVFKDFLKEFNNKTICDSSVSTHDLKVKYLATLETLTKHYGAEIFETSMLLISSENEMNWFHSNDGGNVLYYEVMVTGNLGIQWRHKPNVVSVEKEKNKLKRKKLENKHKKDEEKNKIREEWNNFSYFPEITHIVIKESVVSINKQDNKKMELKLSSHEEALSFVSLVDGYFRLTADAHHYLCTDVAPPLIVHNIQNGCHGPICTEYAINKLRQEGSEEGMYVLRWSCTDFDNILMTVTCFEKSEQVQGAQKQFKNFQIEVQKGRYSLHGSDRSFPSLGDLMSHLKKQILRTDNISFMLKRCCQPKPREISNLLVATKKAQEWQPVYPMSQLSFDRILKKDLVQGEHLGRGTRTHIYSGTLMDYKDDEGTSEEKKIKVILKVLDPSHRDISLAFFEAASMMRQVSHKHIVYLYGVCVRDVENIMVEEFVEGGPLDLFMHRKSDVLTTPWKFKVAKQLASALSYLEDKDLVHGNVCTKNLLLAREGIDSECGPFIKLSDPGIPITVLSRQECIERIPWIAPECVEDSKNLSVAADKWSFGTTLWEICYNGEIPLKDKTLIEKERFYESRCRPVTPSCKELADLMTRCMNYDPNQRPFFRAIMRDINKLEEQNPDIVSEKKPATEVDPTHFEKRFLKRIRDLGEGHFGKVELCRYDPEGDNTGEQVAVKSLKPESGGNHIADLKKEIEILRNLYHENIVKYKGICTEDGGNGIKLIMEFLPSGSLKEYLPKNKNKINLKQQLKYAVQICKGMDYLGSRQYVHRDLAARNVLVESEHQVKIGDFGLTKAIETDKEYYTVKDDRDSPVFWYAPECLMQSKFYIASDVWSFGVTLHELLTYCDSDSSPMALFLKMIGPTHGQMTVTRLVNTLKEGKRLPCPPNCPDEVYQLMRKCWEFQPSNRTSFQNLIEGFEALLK
JAK2, sequence (O60674 808-1132): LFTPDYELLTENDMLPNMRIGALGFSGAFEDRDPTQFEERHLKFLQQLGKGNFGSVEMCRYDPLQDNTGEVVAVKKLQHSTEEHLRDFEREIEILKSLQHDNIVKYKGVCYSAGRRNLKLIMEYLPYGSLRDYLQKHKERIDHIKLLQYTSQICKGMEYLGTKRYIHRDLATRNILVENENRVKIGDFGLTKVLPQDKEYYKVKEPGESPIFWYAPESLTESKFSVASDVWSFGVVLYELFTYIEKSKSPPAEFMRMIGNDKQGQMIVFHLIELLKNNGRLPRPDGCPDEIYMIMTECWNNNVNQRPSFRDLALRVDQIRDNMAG

The IC50 is the midpoint of a concentration-inhibition curve. Turning to `CN(c1ncnc2[nH]ccc12)[C@H]1CC[C@H](CS(=O)(=O)N2CCN(c3ccccn3)CC2)CC1` [Example 120, N-methyl-N-(trans-4-{[(4-pyridin-2-ylpiperazin-1-yl)sulfonyl]methyl}cyclo-hexyl)-7H-pyrrolo[2,3-d]-pyrimidin-4-amine], the IC50 on JAK2 amounted to 22.3 nM; at JAK3 it was 208 nM; at JAK1 it was 8.43 nM.

Take `COC[C@H]1CCCN1S(=O)(=O)C[C@H]1CC[C@H](N(C)c2ncnc3[nH]ccc23)CC1` [Example 69, N-[trans-4-({[(2R)-2-(methoxymethyl)pyrrolidin-1-yl]sulfonyl}methyl)-cyclohexyl]-N-methyl-7H-pyrrolo[2,3-d]pyrimidin-4-amine]: the IC50 at JAK2 turned out to be 56.2 nM; on JAK3, 370 nM; on JAK1 it was 9.55 nM.

`CCCS(=O)(=O)CC1CCCN(S(=O)(=O)C[C@H]2CC[C@H](N(C)c3ncnc4[nH]ccc34)CC2)C1` (stereo partly drawn) [Example 17, N-methyl-N-{trans-4-[({3-[(propylsulfonyl)methyl]-piperidin-1-yl}sulfonyl)-methyl]-cyclohexyl}-7H-pyrrolo[2,3-d]pyrimidin-4-amine]: the IC50 on JAK2 was 54.7 nM; at JAK3, 745 nM; at JAK1, 6.06 nM.

On to `COCCC1(C(N)=O)CCN(S(=O)(=O)C[C@H]2CC[C@H](N(C)c3ncnc4[nH]ccc34)CC2)CC1` [Example 45, 4-(2-methoxyethyl)-1-[({trans-4-[methyl(7H-pyrrolo[2,3-d]pyrimidin-4-yl)amino]cyclohexyl}-methyl)sulfonyl]piperidine-4-carboxamide], for which the values for the IC50 at JAK2, at JAK3 and at JAK1 were 8.97 nM, 39.6 nM and 1.59 nM, respectively.

With `CN(c1ncnc2[nH]ccc12)[C@H]1CC[C@H](CS(=O)(=O)N2CCCC(C(F)(F)F)C2)CC1` (stereo partly drawn) [Example 6, N-methyl-N-[trans-4-({[3-(trifluoromethyl)piperidin-1-yl]sulfonyl}methyl)-cyclohexyl]-7H-pyrrolo[2,3-d]pyrimidin-4-amine], the IC50 stood at 54.3 nM on JAK2, 604 nM at JAK3 and 7.25 nM at JAK1.

As to `CN(c1ncnc2[nH]ccc12)[C@H]1CC[C@H](CS(=O)(=O)N2CCC(Cc3ncccn3)CC2)CC1` [Example 46, N-methyl-N-[trans-4-({[4-(pyrimidin-2-ylmethyl)-piperidin-1-yl]sulfonyl}-methyl)cyclohexyl]-7H-pyrrolo[2,3-d]pyrimidin-4-amine], the IC50 on JAK2 worked out at 17.7 nM; on JAK3, 167 nM; on JAK1, 5.98 nM.

For `CN(c1ncnc2[nH]ccc12)[C@H]1CC[C@H](CS(=O)(=O)N2CC[C@@H](F)C2)CC1` [Example 34, N-[trans-4-({[(3R)-3-fluoropyrrolidin-1-yl]sulfonyl}methyl)cyclo-hexyl]-N-methyl-7H-pyrrolo-[2,3-d]pyrimidin-4-amine], the IC50 on JAK2 amounted to 16.7 nM; on JAK3 it was 217 nM; on JAK1 it was 7.35 nM.

Turning to `CNC(=O)C1CCN(S(=O)(=O)C[C@H]2CC[C@H](N(C)c3ncnc4[nH]ccc34)CC2)CC1` [Example 54, N-methyl-1-[({trans-4-[methyl(7H-pyrrolo[2,3-d]-pyrimidin-4-yl)amino]-cyclohexyl}methyl)sulfonyl] piperidine-4-carboxamide], the IC50 at JAK2 was determined as 44.9 nM; at JAK3, 377 nM; on JAK1 it was 22 nM.

On to `CN(c1ncnc2[nH]ccc12)[C@H]1CC[C@H](CS(=O)(=O)N2C[C@@H](O)[C@H](C#N)C2)CC1` [Example 36, (3S,4S)-4-hydroxy-1-[({trans-4-[methyl(7H-pyrrolo[2,3-d]pyrimidin-4-yl)amino]cyclohexyl}methyl)-sulfonyl]pyrrolidine-3-carbonitrile], for which the IC50 turned out to be 18.7 nM on JAK2, 123 nM at JAK3 and 5.35 nM on JAK1.

Take `CN(c1ncnc2[nH]ccc12)[C@H]1CC[C@H](CS(=O)(=O)N2CC[C@H](Cc3cnccn3)C2)CC1` [Example 102, N-methyl-N-[trans-4-({[3-(pyrazin-2-ylmethyl)-pyrrolidin-1-yl]sulfonyl}-methyl)cyclohexyl]-7H-pyrrolo[2,3-d]pyrimidin-4-amine]: the IC50 was 28.6 nM at JAK2, 283 nM on JAK3 and 19.9 nM on JAK1.

As for `CN(c1ncnc2[nH]ccc12)[C@H]1CC[C@H](CS(=O)(=O)N2CCC[C@@](C)(CO)C2)CC1` [Example 63, {3-methyl-1-[({trans-4-[methyl(7H-pyrrolo[2,3-d]-pyrimidin-4-yl)amino]-cyclohexyl}methyl)sulfonyl]piperidin-3-yl}methanol], the IC50 at JAK2 was 50.7 nM; at JAK3 it was 554 nM; on JAK1 it was 8.88 nM.

For `CN(c1ncnc2[nH]ccc12)[C@H]1CC[C@H](CS(=O)(=O)N2CCC[C@@H](OP(=O)(O)O)C2)CC1` [Example 141, (3R)-1-[({trans-4-[methyl(7H-pyrrolo[2,3-d]pyrimidin-4-yl)amino]cyclohexyl}methyl)sulfonyl]piperidin-3-yl dihydrogen phosphate], the IC50 at JAK2 came out at 0.106 nM; at JAK3 it was 0.768 nM; on JAK1 it was 0.0263 nM.

Turning to `CN(c1ncnc2[nH]ccc12)[C@H]1CC[C@H](CS(=O)(=O)N2CCC(C)(O)CC2)CC1` [Example 23, 4-methyl-1-[({trans-4-[methyl(7H-pyrrolo[2,3-d]pyrimidin-4-yl)amino]-cyclohexyl}methyl)sulfonyl]-piperidin-4-ol], the IC50 was determined as 42.1 nM at JAK2, 243 nM at JAK3 and 7.74 nM at JAK1.

Turning to `CN(c1ncnc2[nH]ccc12)[C@H]1CC[C@H](CS(=O)(=O)N2CCCC(Cc3ccccn3)C2)CC1` (stereo partly drawn) [Example 21, N-methyl-N-[trans-4-({[3-(pyridin-2-ylmethyl)-piperidin-1-yl]sulfonyl}-methyl)cyclohexyl]-7H-pyrrolo[2,3-d]pyrimidin-4-amine], the results for the IC50 at JAK2, on JAK3 and on JAK1 were 33 nM, 592 nM and 11.3 nM, respectively.

Take `CN(c1ncnc2[nH]ccc12)[C@H]1CC[C@H](CS(=O)(=O)N2CC[C@H](NC(=O)OC(C)(C)C)C2)CC1` [Example 26, tert-butyl {(3S)-1-[({trans-4-[methyl(7H-pyrrolo[2,3-d]pyrimidin-4-yl)amino]-cyclohexyl}methyl)sulfonyl]-pyrrolidin-3-yl}carbamate]: the values for the IC50 on JAK2, at JAK3 and at JAK1 were 48.4 nM, 230 nM and 1.44 nM, respectively.

For the compound `CN(c1ncnc2[nH]ccc12)[C@H]1CC[C@H](CS(=O)(=O)N2CCC[C@H](O)C2)CC1` [Example 58, 1-[({trans-4-[methyl(7H-pyrrolo[2,3-d]pyrimidin-4-yl)-amino]cyclohexyl}-methyl)sulfonyl]piperidin-3-ol], the IC50 on JAK2 was 18 nM; at JAK3, 175 nM; at JAK1, 3.2 nM.

Regarding `CN(c1ncnc2[nH]ccc12)[C@H]1CC[C@H](CS(=O)(=O)N2CCC[C@@H](O)C2)CC1` [Example 40, (3R)-1-[({trans-4-[methyl(7H-pyrrolo[2,3-d]pyrimidin-4-yl)amino]-cyclohexyl}methyl)sulfonyl]piperidin-3-ol], the IC50 was determined as 8.04 nM on JAK2, 105 nM at JAK3 and 1.44 nM on JAK1.

Consider `C[C@H]1CN(S(=O)(=O)C[C@H]2CC[C@H](N(C)c3ncnc4[nH]ccc34)CC2)C[C@@H]1CO` [Example 135, {(3r,4r)-4-methyl-1-[({trans-4-[methyl(7H-pyrrolo[2,3-d]pyrimidin-4-yl)amino]cyclohexyl}methyl)sulfonyl]pyrrolidin-3-yl}methanol], for which the results for the IC50 at JAK2, on JAK3 and at JAK1 were 0.0165 nM, 0.198 nM and 0.00199 nM, respectively.

Turning to `CN(c1ncnc2[nH]ccc12)[C@H]1CC[C@H](CS(=O)(=O)N2CCC2)CC1` [Example 109, N-{trans-4-[(azetidin-1-ylsulfonyl)methyl]cyclo-hexyl}-N-methyl-7H-pyrrolo[2,3-d]pyrimidin-4-amine], the IC50 is 39.4 nM on JAK2, 289 nM on JAK3 and 14.3 nM at JAK1.

For `CN(C(=O)OC(C)(C)C)[C@H]1CCN(S(=O)(=O)C[C@H]2CC[C@H](N(C)c3ncnc4[nH]ccc34)CC2)C1` [Example 92, tert-butyl methyl{(3S)-1-[({trans-4-[methyl(7H-pyrrolo[2,3-d]pyrimidin-4-yl)amino]cyclohexyl}methyl)-sulfonyl]pyrrolidin-3-yl}carbamate], the IC50 was found to be 81 nM on JAK2, 488 nM on JAK3 and 6.91 nM on JAK1.

As for `CCN1CCN(C[C@H]2CCN(S(=O)(=O)C[C@H]3CC[C@H](N(C)c4ncnc5[nH]ccc45)CC3)C2)C(=O)C1=O` [Example 105, 1-ethyl-4-({1-[({trans-4-[methyl(7H-pyrrolo[2,3-d]pyrimidin-4-yl)amino]cyclohexyl}methyl)-sulfonyl]pyrrolidin-3-yl}methyl)piperazine-2,3-dione], the IC50 came out at 90.4 nM at JAK2, 755 nM on JAK3 and 17.8 nM on JAK1.

Consider `CN(c1ncnc2[nH]ccc12)[C@H]1CC[C@H](CS(=O)(=O)N2CC[C@@H](O)[C@H](O)C2)CC1` [Example 12, (3R,4R)-1-[({trans-4-[methyl(7H-pyrrolo[2,3-d]pyrimidin-4-yl)amino]-cyclohexyl}methyl)sulfonyl]-piperidine-3,4-diol], for which the IC50 at JAK2 stood at 11.8 nM; at JAK3, 119 nM; on JAK1, 4.28 nM.

Take `Cc1ccc(N2CCN(S(=O)(=O)C[C@H]3CC[C@H](N(C)c4ncnc5[nH]ccc45)CC3)CC2)nc1` [Example 118, N-methyl-N-[trans-4-({[4-(5-methylpyridin-2-yl)piperazin-1-yl]sulfonyl}-methyl)cyclohexyl]-7H-pyrrolo[2,3-d]pyrimidin-4-amine]: the IC50 is 50.8 nM on JAK2, 255 nM at JAK3 and 16.7 nM at JAK1.
